Results as given in patent US12306535B2, “Photoacid generator for chemically amplified photoresists for deep ultra violet and extreme ultraviolet lithography” (International Business Machines Corporation, priority 2022, dated 2025).

Legend:
[1] = Acid-dissociation constant relative to tris(trifluoromethylsulfonyl)methane; type: physicochemical; settings: compared with tris(trifluoromethylsulfonyl)methane
[2] = smaller than that of tris(trifluoromethylsulfonyl)methane; cited from earlier work
[3] = relative to triphenylantimony and triphenylbismuth; cited from earlier work

Compound	acid-dissociation constant of acids generated upon UV exposure [1]	other results
N#Cc1[b-]2c(C#N)c(C#N)c(C#N)c(C#N)c2c(C#N)c(C#N)c1C#N.c1ccc([S+](c2ccccc2)c2ccccc2)cc1 [17B, triphenylsulfonium 1,2,3,4,5,6,7,8-octacyanobenzo[a]borinine]	higher than that of tris(trifluoromethylsulfonyl)methane	–
N#Cc1[b-]2c(C#N)c(C#N)c(C#N)c(C#N)c2c(C#N)c(C#N)c1C#N.c1ccc([I+]c2ccccc2)cc1 [17D, diphenyliodonium 1,2,3,4,5,6,7,8-octacyanobenzo[a]borinine]	higher than that of tris(trifluoromethylsulfonyl)methane	–
N#Cc1[b-]2c(C#N)c(C#N)c(C#N)c(C#N)c2c(C#N)c(C#N)c1C#N.c1ccc([S+]2CCCC2)cc1 [17F, phenylthiolanium 1,2,3,4,5,6,7,8-octacyanobenzo[a]borinine]	higher than that of tris(trifluoromethylsulfonyl)methane	–
CC1(C)C2CCC1(CS(=O)(=O)O)C(=O)C2 (stereo not drawn) [camphorsulfonic anions]	–	acid-dissociation constant [2]: about 18 orders of magnitude
diphenyliodonium bis(1,2,2-tricyanoethen-1-yl)-(1,1,2,4,5,5-hexacyanopent-1,4-dien-3-yl)borane [17C]	higher than that of tris(trifluoromethylsulfonyl)methane	–
p-toluenesulfonate [p-toluenesulfonate anions]	–	acid-dissociation constant [2]: about 18 orders of magnitude
phenylthiolanium bis(1,2,2-tricyanoethen-1-yl)-(1,1,2,4,5,5-hexacyanopent-1,4-dien-3-yl)borane [17E]	higher than that of tris(trifluoromethylsulfonyl)methane	–
triphenylsulfonium bis(1,2,2-tricyanoethen-1-yl)-(1,1,2,4,5,5-hexacyanopent-1,4-dien-3-yl)borane [17A]	higher than that of tris(trifluoromethylsulfonyl)methane	–
triphenyltin	–	mean lethal dose LD50 [3]: one to two orders of magnitude lower
